Experimental data as given in article PMC2191300 (The Journal of Experimental Medicine, 1993).

Each substance was assayed against I-Ak (Mus musculus, UniProt P01910+P06343) (assay: Percent of I-Ak occupied by each eluted self-peptide). Settings: I-Ak from thymus (cortical plus medullary epithelium) of C3H/HeJ mice; Table 1.
Chain of I-Ak (P01910 whole entry, looked up): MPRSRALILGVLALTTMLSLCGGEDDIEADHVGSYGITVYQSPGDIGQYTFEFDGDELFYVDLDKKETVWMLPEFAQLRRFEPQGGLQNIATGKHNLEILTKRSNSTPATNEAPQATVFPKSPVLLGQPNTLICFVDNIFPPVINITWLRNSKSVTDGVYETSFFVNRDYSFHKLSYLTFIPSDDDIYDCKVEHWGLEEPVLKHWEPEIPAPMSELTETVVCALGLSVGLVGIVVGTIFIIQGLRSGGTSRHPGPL
Chain of I-Ak (P06343 whole entry, looked up): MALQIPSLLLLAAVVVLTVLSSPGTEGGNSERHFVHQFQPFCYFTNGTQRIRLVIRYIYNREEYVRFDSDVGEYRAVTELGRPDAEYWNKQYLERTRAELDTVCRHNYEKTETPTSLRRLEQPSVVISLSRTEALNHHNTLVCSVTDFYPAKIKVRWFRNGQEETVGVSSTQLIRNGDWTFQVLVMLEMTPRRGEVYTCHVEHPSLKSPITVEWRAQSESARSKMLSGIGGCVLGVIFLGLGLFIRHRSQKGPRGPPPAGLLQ
With xP_IDDGGIEA the “Percent of MHC occupied in Thymus” value was < 0.1%. In the case of e yiLYNKGIMGEdSYPY [Cathepsin H 77-], the “Percent of MHC occupied in Thymus” value is reported as 0.2%. For xPL_ALQFAELPVNKG, the “Percent of MHC occupied in Thymus” value was 0.2%. In the case of r sYLD_AwVcEQLAT [Fce Receptor 11 298-], the “Percent of MHC occupied in Thymus” value is reported as < 0.1%. For a vvKKGTD_FQLNQLE [Transferrin 100-], the “Percent of MHC occupied in Thymus” value was 0.3%. For k kGTD_FQLNQLEGKKG [Transferrin 103-], the “Percent of MHC occupied in Thymus” value was 0.2%. n serHFV_HQFQPFcyF [A~ 3-] was tested, and the “Percent of MHC occupied in Thymus” value was < 0.1%. For xQLGA_QNEMLxPV, the “Percent of MHC occupied in Thymus” value was < 0.1%.
